In the assay the target is protein disulfide isomerase (PDI, PDIA1) (Homo sapiens, UniProt P07237). In words: surface plasmon resonance. The assay is classed as binding. In general terms: SPR reads the build-up and loss of mass on a sensor chip optically.
Chain of protein disulfide isomerase (PDI, PDIA1) (P07237 18-508): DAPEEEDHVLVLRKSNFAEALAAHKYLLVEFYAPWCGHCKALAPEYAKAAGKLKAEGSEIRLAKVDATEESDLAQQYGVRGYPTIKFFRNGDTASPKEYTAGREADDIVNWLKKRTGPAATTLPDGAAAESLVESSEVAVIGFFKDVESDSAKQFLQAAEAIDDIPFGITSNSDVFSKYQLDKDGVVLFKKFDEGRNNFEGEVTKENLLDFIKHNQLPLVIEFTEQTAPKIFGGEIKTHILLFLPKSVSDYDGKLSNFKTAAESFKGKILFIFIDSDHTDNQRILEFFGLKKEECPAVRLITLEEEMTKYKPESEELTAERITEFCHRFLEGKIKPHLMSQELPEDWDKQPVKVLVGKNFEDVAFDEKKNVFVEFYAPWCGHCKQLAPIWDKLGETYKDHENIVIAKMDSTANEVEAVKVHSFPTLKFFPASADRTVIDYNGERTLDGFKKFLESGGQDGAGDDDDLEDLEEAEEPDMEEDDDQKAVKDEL

The term Kd denotes the constant that tells how readily two partners part at equilibrium. Lower therefore signals tighter binding. Compound `Cc1c(-c2ccc(O)cc2)n(Cc2ccc(OCCN3CCCCCC3)cc2)c2ccc(O)cc12` [BAZ, bazedoxifene] gave a Kd of 3.3 nM.

The values are drawn from article PMC12060420 (Cell Communication and Signaling : CCS, 2025).
